# Tests used:
# Format in all cases: in vivo
# panel of trained tasters = test: Taste evaluation in water
# Protocol: A one percent cut of each compound of Examples 1-13 was prepared first. The hydrochloride salts were cut directly into water, while the free base examples were cut into ethanol. Next, 100 ml of a 1 ppm, 10 ppm and 20 ppm solution were prepared. The 1 ppm standards were prepared by addition of 0.0126 ml (cut in ethanol) or 0.01 ml (cut in water) to an amber bottle followed by dilution to 100 g total sample weight using water. The 10 and 20 ppm solutions were prepared similarly, but using 0.126 ml ethanol/0.1 ml water or 0.252 ml ethanol/0.2 ml water of the 1% cuts respectively. Next, the samples were evaluated by a panel of trained tasters.
# bench-top tasting panel [1] = test: Umami evaluation in retorted chicken broth (Example 20); details: Example 3 4 ppm, Example 13 3 ppm, Example 10 4 ppm, Example 9 3 ppm; for umami strength ranking: MSG 0.20%, 9 panelists
# Protocol: (§1) Umami evaluations were done in dry noodle seasoning, chicken broth, retorted chicken broth, cheese sauce and salted potato chip applications. Each application was prepared using MSG, the experimental umami tastant and a blank which contained neither MSG nor the experimental umami tastant. Next, using a bench-top tasting panel (consisting of 7 to 14 panelists), panelists were asked to record the sensory attribute differences between the control (blank), the MSG application and the application containing the experimental umami tastant. These sensory attributes include umami, saltiness, bitterness, off-notes, mouth feel attribute, lingering attribute and flavor profile differences.
# The procedure for the preparation of the retorted chicken broth is the same as in example 16. Compounds from Examples 3, 9, 10 and 13 were spiked individually into the chicken broth generating six samples, as described below.
# bench-top tasting panel [2] = test: Bain marie (hot water bath) test with chicken broth; details: hot water bath 150° F. for 4 hours, Example 3 3 ppm, Example 13 2 ppm (table), Example 10 3 ppm, Example 9 2 ppm; for umami strength ranking: MSG 0.20%, 7 panelists
# Protocol: as §1
# Chicken broth was prepared as previously described in example 15. Compounds from Examples 3, 9, 10 and 13 were added to the chicken broth in the concentrations described below and placed in a hot water bath (150° F.) for 4 hours prior to taste evaluation.
# bench-top tasting panel [3] = test: Umami evaluation on salted potato chips (Example 22); details: 1% salted potato chips, Example 3 10 ppm, Example 13 10 ppm, Example 10 6 ppm, Example 9 10 ppm; for umami strength ranking: MSG 0.2%, 9 panelists
# Protocol: as §1
# The potato chips were prepared as previously described in example 19 and spiked with compounds from Examples 3, 9, 10 and 13 as described below.
SMILES,aroma (panel of trained tasters; 1 ppm in water),taste (panel of trained tasters; 1 ppm in water),aroma (panel of trained tasters; 10 ppm in water),taste (panel of trained tasters; 10 ppm in water),aroma (panel of trained tasters; 20 ppm in water),taste (panel of trained tasters; 20 ppm in water),flavor profile described by panelists (bench-top tasting panel [1]),umami strength ranking (bench-top tasting panel [1]),flavor profile described by panelists (bench-top tasting panel [2]),umami strength ranking (bench-top tasting panel [2]),flavor profile described by panelists (bench-top tasting panel [3]),umami strength ranking (bench-top tasting panel [3])
"c1ccc(CSCCc2ccccn2)cc1 [Example 11, 2-(2-(BENZYLTHIO)ETHYL)PYRIDINE]",phenolic,"weak umami, very weak astringent","Phenolic, spicy","weak umami, very weak astringent","Phenolic, spicy","moderate to strong umami, very weak bitter,",–,–,–,–,–,–
"Cl.c1ccc(SCCc2ccccn2)cc1 [Example 2, 2-(2-(PHENYLTHIO)ETHYL)PYRIDINE HYDROCHLORIDE]",green,"weak umami, very weak astringent",green,"moderate umami, very weak: salty, bitter,",green,"moderate umami, weak: salty, bitter, astringent",–,–,–,–,–,–
"COc1ccc(SCCc2ccccn2)cc1.Cl [Example 13, 2-(2-((4-METHOXYPHENYL)THIO)ETHYL)PYRIDINE HYDROCHLORIDE]",–,"Weak umami, very weak bitter, astringent",–,"Moderate to strong umami, very weak: bitter,",pyrazine,"Strong umami, very weak bitter",a slightly sweet/slightly bitter profile,MSG>3 ppm example 9>3 ppm Example 13>4 ppm Example 3>Blank retorted chicken broth>4 ppm Example 10,mid/late umami with some late onset bitterness,MSG>2 ppm example 9>3 ppm Example 10=4 ppm Example 13>Blank chicken broth>3 ppm Example 3,"A good, salty, umami profile",10 ppm Example 3>10 ppm Example 9>MSG>10 ppm Example 13>blank>6 ppm Example 10
"Cc1ccccc1SCCc1ccccn1.Cl [Example 5, 2-(2-(O-TOLYLTHIO)ETHYL)PYRIDINE HYDROCHLORIDE]",green pepper,"weak bitter, astringent, very weak metallic",green pepper,"weak umami, very weak bitter",green pepper,"weak umami, very weak: bitter, astringent",–,–,–,–,–,–
"COC(=O)c1ccccc1SCCc1ccccn1.Cl [Example 9, METHYL 2-((2-(PYRIDIN-2-YL)ETHYL)THIO)BENZOATE HYDROCHLORIDE]",–,"weak: umami, astringent, very weak: salty,",–,"moderate umami,, weak: salty, astringent, very",–,"moderate umami, weak: salty, astringent,","a sweet, full umami profile",MSG>3 ppm example 9>3 ppm Example 13>4 ppm Example 3>Blank retorted chicken broth>4 ppm Example 10,"a boost in saltiness along with a strong, full umami taste profile",MSG>2 ppm example 9>3 ppm Example 10=4 ppm Example 13>Blank chicken broth>3 ppm Example 3,"better mouthfeel, slight to moderate umami with an overall clean profile",10 ppm Example 3>10 ppm Example 9>MSG>10 ppm Example 13>blank>6 ppm Example 10
"Oc1ccccc1SCCc1ccccn1 [Example 7, 2-((2-(PYRIDIN-2-YL)ETHYL)THIO)PHENOL]",Green pepper,"very weak: umami, salty, weak bitter",Green pepper,"weak to moderate umami, weak: bitter, metallic,",Green pepper,"Weak to moderate umami, weak bitter, very",–,–,–,–,–,–
"COc1cccc(SCCc2ccccn2)c1 [Example 8, 2-(2-((3-METHOXYPHENYL)THIO)ETHYL)PYRIDINE]","Green pepper, beany","very weak metallic, weak astringent",Green pepper,"weak: umami, astringent, very weak: bitter,",Green pepper,"weak: umami, very weak: bitter, metallic",–,–,–,–,–,–
"Oc1cccc(SCCc2ccccn2)c1 [Example 10, 3-((2-(PYRIDIN-2-YL)ETHYL)THIO)PHENOL]",green,very weak bitter,–,"weak: umami, metallic, very weak: bitter,",vegetable,–,a green pepper aroma and was slightly bitter,MSG>3 ppm example 9>3 ppm Example 13>4 ppm Example 3>Blank retorted chicken broth>4 ppm Example 10,mid/late umami along with a slight bitterness and off notes,MSG>2 ppm example 9>3 ppm Example 10=4 ppm Example 13>Blank chicken broth>3 ppm Example 3,"a nice salty, slight umami profile along with a slight offnote",10 ppm Example 3>10 ppm Example 9>MSG>10 ppm Example 13>blank>6 ppm Example 10
"Oc1ccc(SCCc2ccccn2)cc1 [Example 6, 4-((2-(PYRIDIN-2-YL)ETHYL)THIO)PHENOL]",green,"very weak: umami, astringent","Green, fruity","weak: umami, bitter, astringent, very weak","Green, fruity","weak: umami, bitter, astringent, very weak",–,–,–,–,–,–
"Cc1cccc(SCCc2ccccn2)c1.Cl [Example 12, 2-(2-(M-TOLYLTHIO)ETHYL)PYRIDINE HYDROCHLORIDE]",–,"weak: umami, astringent, very weak salty",–,"moderate umami, weak: salty, astringent",–,"moderate to strong umami, weak: salty,",–,–,–,–,–,–
"Cc1ccc(SCCc2ccccn2)cc1.Cl [Example 4, 2-(2-(P-TOLYLTHIO)ETHYL)PYRIDINE HYDROCHLORIDE]",–,"very weak: umami, bitter, astringent",green,"weak: umami, bitter, astringent, very weak",green,"Weak: umami, bitter, metallic, sour, astringent",–,–,–,–,–,–
"COC(=O)c1ccc(SCCc2ccccn2)cc1.Cl [Example 3, METHYL 4-((2-(PYRIDIN-2-YL)ETHYL)THIO)BENZOATE HYDROCHLORIDE]",–,"weak to moderate umami, very weak: bitter,",bloody metallic,"moderate umami, weak: bitter, metallic,",bloody metallic,"moderate to strong umami, weak: bitter,",a sweeter flavor profile with a build up of umami character,MSG>3 ppm example 9>3 ppm Example 13>4 ppm Example 3>Blank retorted chicken broth>4 ppm Example 10,"a bitter, limited umami flavor profile",MSG>2 ppm example 9>3 ppm Example 10=4 ppm Example 13>Blank chicken broth>3 ppm Example 3,a slight to moderate level of umami along with strong salty profile,10 ppm Example 3>10 ppm Example 9>MSG>10 ppm Example 13>blank>6 ppm Example 10

# — patent publication US10178875B2, “Methods of modifying or imparting taste using organic compounds” (Givaudan, S.A., priority 2013, dated 2019)
